Reference: PMC11697029 (Nature Communications, 2025)

target: T1, RmlT (Listeria monocytogenes, UniProt Q8Y838); experiment: isothermal titration calorimetry; format: binding
T1 sequence (Q8Y838 1-623): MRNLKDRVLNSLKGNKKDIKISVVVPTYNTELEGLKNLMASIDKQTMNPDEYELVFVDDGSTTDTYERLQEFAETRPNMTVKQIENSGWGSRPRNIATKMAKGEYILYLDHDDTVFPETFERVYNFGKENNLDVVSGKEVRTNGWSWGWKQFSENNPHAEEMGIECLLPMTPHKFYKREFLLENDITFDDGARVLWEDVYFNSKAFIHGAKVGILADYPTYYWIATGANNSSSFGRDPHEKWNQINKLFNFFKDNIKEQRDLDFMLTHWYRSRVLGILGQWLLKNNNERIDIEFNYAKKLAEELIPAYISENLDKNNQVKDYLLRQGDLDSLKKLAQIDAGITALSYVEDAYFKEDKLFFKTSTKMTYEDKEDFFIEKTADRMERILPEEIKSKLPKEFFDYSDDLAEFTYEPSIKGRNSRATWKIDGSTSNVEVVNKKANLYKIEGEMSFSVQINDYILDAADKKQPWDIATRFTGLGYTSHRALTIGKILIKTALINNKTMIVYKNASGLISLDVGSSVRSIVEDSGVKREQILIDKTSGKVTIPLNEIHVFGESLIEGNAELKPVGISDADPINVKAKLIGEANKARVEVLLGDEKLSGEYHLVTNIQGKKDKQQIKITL

Q: For Cc1cn([C@H]2C[C@H](O)[C@@H](COP(=O)(O)OP(=O)(O)O[C@H]3O[C@H](CO)[C@@H](O)[C@H](O)[C@H]3O)O2)c(=O)[nH]c1=O [TDP-glucose], which Kd is on record?
A: ~10 µM

Q: Cc1cn([C@H]2C[C@H](O)[C@@H](COP(=O)(O)OP(=O)(O)O[C@H]3O[C@@H](C)[C@H](O)[C@@H](O)[C@H]3O)O2)c(=O)[nH]c1=O [TDP-rhamnose] was tested. Which Kd did it give?
A: ~13 µM

Q: Cc1cn([C@H]2C[C@H](O)[C@@H](COP(=O)(O)OP(=O)(O)O)O2)c(=O)[nH]c1=O [TDP] was tested. Which Kd did it give?
A: ~50 µM
